Results published in patent US5891622A, “Assessment of oxidative stress in vivo” (Oxford Biomedical Research, Inc., priority 1998, dated 1999).

Assays:
anti-8EPGF2 IgG [1] = assay: specificity / cross-reactivity of anti-8EPGF2 IgG (competitive ELISA); assay type: binding, goat; details: for cross-reaction with anti-8EPGF2 IgG (in words) / cross-reaction with anti-8EPGF2 IgG: 8EPGF2 ELISA
Description: The IgG bound to the protein G column was eluted with 50 mM glycine-HCl buffer, pH 2.5, and immediately neutralized with 0.5M Tris-HCl, pH 7.6.
High-binding strip well microplates (Labsystems, Inc., Marlboro, Ma.) were coated with protein G-purified IgG suspended in 1M carbonate, pH 9.0, (1 μg/well; 200 μL/well final volume) and then covered with parafilm. After overnight incubation at room temperature, the wells were gently washed five times with tris buffered saline (TBS), pH 7.5, containing 0.1% tween. Non-specific sites were blocked by the addition of 0.2 mL of 5% (w/v) nonfat dry milk in TBS. After 2 hours of incubation at room temperature, the plates were washed three times with TBS-tween. […] Following incubation for 1 hour to permit competitive binding to bound antibody, unbound material was removed by thoroughly washing the wells with TBS-tween and 150 μL of a calorimetric substrate for HRP [3,3',5,5'tetramethylbenzidine (TMB) with hydrogen peroxide] (ELISA Technologies) was added. After incubation of the plate for 20 minutes, the reaction is stopped by addition of 75 μL of 1N H2 SO4, and the absorbance at 450 nm determined using a microtiter plate reader. Under these assay conditions, the amount of color in a well is inversely proportional to the initial concentration of the sample or standard ligand.

anti-8EPGF2 IgG [2] = assay: immunoaffinity column retention of 8EPGF2 on anti-8EPGF2 IgG resin; assay type: binding, goat; details: up to 10 ng 8EPGF2 applied
Description: Reacti-gel was obtained from Pierce Co. and anti-8EPGF2 immunoaffinity column was prepared according to the manufacturer's instruction. […] In each experiment samples were diluted to concentrations lower than the capacity of the column (~0.5 ng/100 μL) prior to application to the column.
Urine samples were applied to immunoaffinity columns, which were then eluted with acetonitrile:water (1:3), followed by acetone:water (90:10). The eluates were then processed and analyzed using the standard GC/MS protocol as described herein above. […] PGF2α has a slightly longer retention time than the [^2 H4 ]-PGF2α (the internal control) shown in the bottom chromatograms of FIG. 4A and 4B, because protium runs faster than deuterium on GC [Wendelborn et al, 1990]. The six peaks with m/z=569 are numbered by the order of elution and the elution time of each peak was divided by the elution time of internal standard, [^2 H4 ]-PGF2α, obtained at m/z=573 to calculate relative elution time of each peak. […] The identity of Peak I, II, III, and VI is not known.

vasoconstriction = details: cited from earlier work
[3] = aqueous solution, non-enzymatic rearrangement to PGD2 and PGE2; cited from earlier work

SMILES | cross-reaction with anti-8EPGF2 IgG (in words) (anti-8EPGF2 IgG [1]) | also measured
CCCCC[C@H](O)/C=C/[C@@H]1[C@@H](CC(=O)CCCCC(=O)O)[C@@H](O)C[C@H]1O [6-keto-PGF1α] | did not cross-react | –
CCCCC[C@H](O)/C=C/[C@@H]1[C@H](CCCCCCC(=O)O)[C@@H](O)C[C@H]1O [8-epi-PGF1α, 5,6-dihydro-8-iso-PGF2α] | did not cross-react | –
CCCCC[C@H](O)/C=C/[C@@H]1[C@H](CCCCCCC(=O)O)[C@H](O)C[C@H]1O [8-epi-PGF1β] | did not cross-react | –
CCCCC[C@H](O)/C=C/[C@@H]1[C@H](C/C=C\CCCC(=O)O)[C@@H](O)C[C@H]1O [8EPGF2, 8-epi-prostaglandin F2α] | – | recognition by anti-8EPGF2 antibody (in words) (anti-8EPGF2 IgG [1]; polyclonal antibody, ELISA): recognized; applied 8EPGF2 bound to antibody cross-linked to resin (anti-8EPGF2 IgG [2]): higher than 98%; unbound 8EPGF2 (anti-8EPGF2 IgG [2]; 100 μl resin): lower than 2%; vasoconstrictor property (in words) (vasoconstriction): vasoconstrictor property; effect of high serum concentration on renal arteries (in words) (vasoconstriction; hepatorenal syndrome patients): intense vasoconstriction of renal arteries
CCCCC[C@H](O)/C=C/[C@@H]1[C@@H](C/C=C\CCCC(=O)O)[C@@H](O)C[C@@H]1O [9α-11β-PGF2] | – | cross-reaction with anti-8EPGF2 IgG (anti-8EPGF2 IgG [1]): 4.1%
CCCCC[C@H](O)/C=C/[C@@H]1[C@@H](C/C=C\CCCC(=O)O)[C@H](O)C[C@H]1O [9β-11α-PGF2α] | did not cross-react | –
CCCCC[C@H](O)/C=C/[C@@H]1[C@@H](CCCCCCC(=O)O)[C@H](O)C[C@@H]1O [11β-PGF1β] | did not cross-react | –
CCCCC[C@H](O)CC[C@@H]1[C@@H](CCCCCCC(=O)O)[C@@H](O)C[C@H]1O [13,14-dihydro-PGF1α] | did not cross-react | –
CCCCCC(=O)CC[C@@H]1[C@@H](CCCCCCC(=O)O)[C@@H](O)C[C@H]1O [13-14-dihydro-15-keto-PGF1α] | did not cross-react | –
CCCCCC(=O)CC[C@@H]1[C@@H](C/C=C\CCCC(=O)O)[C@@H](O)C[C@H]1O [13-14-dihydro-15-keto-PGF2α] | – | cross-reaction with anti-8EPGF2 IgG (anti-8EPGF2 IgG [1]): 3%
CCCCC[C@H](O)/C=C/[C@H]1C(=O)C[C@H](O)[C@@H]1C/C=C\CCCC(=O)O [PGD2] | did not cross-react | –
CCCCC[C@H](O)/C=C/[C@@H]1[C@@H](CCCCCCC(=O)O)[C@H](O)C[C@H]1O [PGF1β] | did not cross-react | –
CCCCC[C@H](O)/C=C/[C@@H]1[C@@H](C/C=C\CCCC(=O)O)[C@@H](O)C[C@H]1O [PGF2α] | did not cross-react | –
CCCCC/C=C\C/C=C\C/C=C\C/C=C\CCCC(=O)O [arachidonic acid] | did not cross-react | –
CCCCC[C@H](O)/C=C/[C@H]1[C@H](O)CC(=O)[C@@H]1C/C=C\CCCC(=O)O [prostaglandin E2] | did not cross-react | –
CCCCC[C@@H](/C=C/[C@@H]1[C@@H](C/C=C\CCCC(=O)O)[C@@H]2C[C@H]1OO2)OO [prostaglandin G2] | – | t1/2 [3]: ~ 5 minutes
CCCCC[C@H](O)/C=C/[C@@H]1[C@@H](C/C=C\CCCC(=O)O)[C@@H]2C[C@H]1OO2 [prostaglandin H2] | – | t1/2 [3]: ~ 5 minutes
